Our source for the Kd values is PMC11985408, “Tsrp1 Is a Novel Cyclic Diguanosine Monophosphate Effector that Plays a Role in the Organic-Solvent Tolerance of Rhodococcus ruber” (Journal of Microbiology and Biotechnology, 2025).

The target in this assay is Tsrp1. As to the kind of experiment: localized surface plasmon resonance, Tsrp1 immobilised on NTA chip, one-to-one model. Type of assay: binding, Rhodococcus ruber. The conditions noted are these: HEPES-buffered saline pH 7.4; c-di-GMP 62.5-500 μM; unit printed as mM in b36 but μM in abstract; read-out: dissociation constant.

Each structure is given as a SMILES string.

With `Nc1nc2c(ncn2[C@@H]2O[C@@H]3COP(=O)(O)O[C@H]4[C@@H](O)[C@H](n5cnc6c(=O)[nH]c(N)nc65)O[C@@H]4COP(=O)(O)O[C@H]3[C@H]2O)c(=O)[nH]1` [c-di-GMP], the Kd was determined as 0.064 ± 0.00684 mM.
